Tests used:
rat [1] = conditions: Combined chronic toxicity/carcinogenicity; sprague dawley; Oral; Feed; dose end: 2 year; group: systemic; systemic / in life observation / body weight / body weight gain
dog [2] = conditions: Subchronic oral toxicity in nonrodent, beagle, Feed, dose end: 13 week, group: systemic
rat [3] = conditions: Prenatal developmental toxicity study, sprague dawley, Oral, Gavage/Intubation, dose end: 15 GD
rat [4] = conditions: Subchronic oral toxicity in rodents, other, Feed, dose end: 92 day, group: systemic
rat [5] = conditions: Subchronic oral toxicity in rodents, Tif: RAIf (SPF), Feed, dose end: 13 week, group: systemic, systemic / in life observation / body weight / body weight + systemic / in life observation / body weight / body weight gain + systemic / …
rat [6] = conditions: Combined chronic toxicity/carcinogenicity, sprague dawley, Oral, Feed, dose end: 104 week, group: systemic
mouse [7] = conditions: Carcinogenicity, cd1, Oral, Feed, dose end: 91 week, group: systemic
rabbit [8] = conditions: Prenatal developmental toxicity study, new zealand white, Oral, Gavage/Intubation, dose end: 19 GD
rabbit [9] = conditions: Prenatal developmental toxicity study, new zealand white, Oral, Gavage/Intubation, dose end: 19 GD; remark: listed apart in the source
dog [10] = conditions: Chronic toxicity; beagle; Oral; Feed; dose end: 52 week; group: systemic; systemic / pathology gross / heart / discolored + systemic / pathology gross / heart / distended + systemic / pathology gross / heart / …
dog [11] = conditions: Chronic toxicity; beagle; Oral; Feed; dose end: 52 week; group: systemic; systemic / in life observation / clinical signs / [other] + systemic / in life observation / clinical signs / tachycardia + systemic / …
mouse [12] = conditions: Carcinogenicity; b6c3f1; Oral; Feed; dose end: 24 month; group: systemic; systemic / in life observation / body weight / body weight gain
rat [13] = conditions: Carcinogenicity, other, Oral, Feed, dose end: 78 week, group: systemic
mouse [14] = conditions: Carcinogenicity, b6c3f1, Oral, Feed, dose end: 78 week, group: systemic
[15] = systemic / pathology microscopic / kidney / basophilia + systemic / pathology microscopic / kidney / hyperplasia + systemic / hematology / …
[16] = group: developmental, developmental / developmental malformation / bone / incomplete ossification
[17] = group: maternal, reproductive / reproductive performance / aborted / aborted + systemic / in life observation / body weight / body weight gain + systemic / …
[18] = systemic / hematology / leukocyte (wbc) count differential / leukocyte (wbc)
[19] = systemic / in life observation / body weight / body weight gain + systemic / in life observation / food consumption / food consumption + …
[20] = systemic / in life observation / body weight / body weight gain + systemic / hematology / erythrocyte (rbc) count differential / erythrocyte…
[21] = group: developmental, developmental / developmental malformation / bone / delayed ossification
[22] = group: maternal, reproductive / reproductive performance / resorptions / resorptions + systemic / in life observation / body weight / body weight + systemic…
[23] = group: maternal, reproductive / reproductive performance / resorptions / resorptions + systemic / in life observation / clinical signs / discharge on …
[24] = systemic / in life observation / body weight / body weight + systemic / pathology microscopic / testes / atrophy
[25] = systemic / pathology microscopic / adrenal gland / adenoma + systemic / in life observation / body weight / body weight + systemic / in life…
[26] = systemic / in life observation / body weight / body weight
[27] = systemic / in life observation / body weight / body weight + systemic / pathology microscopic / liver / carcinoma + systemic / in life …

CCNc1nc(Cl)nc(NC(C)C)n1 [Atrazine] was tested, and the LEL (rat [1]) was 25 mg/kg/day, the LOAEL (rat [1]) was 25 mg/kg/day and the NEL (rat [1]) was 3.5 mg/kg/day. For the same compound, the NOAEL (rat [1]) was 3.5 mg/kg/day, the LOAEL (dog [2]; systemic / pathology microscopic / kidney / basophilia + systemic / pathology microscopic / kidney / hyperplasia) was 28.9 mg/kg/day and the LEL (dog [2]; [15]) was 28.9 mg/kg/day. The NEL (dog [2]; [15]) was 3.71 mg/kg/day, the NOAEL (dog [2]; [15]) was 3.71 mg/kg/day and the LEL (rat [3]; [16]) was 5 mg/kg/day. For the same compound, the LOAEL (rat [3]; [16]) was 100 mg/kg/day, the NEL (rat [3]; [16]) was under 5 mg/kg/day and the NOAEL (rat [3]; [16]) was 25 mg/kg/day. For the same compound, the LEL (rat [3]; group: maternal, reproductive / reproductive performance / aborted / aborted) was 25 mg/kg/day, the NEL (rat [3]; [17]) was 5 mg/kg/day and the NOAEL (rat [3]; [17]) was 25 mg/kg/day. It also gave an LOAEL (rat [3]; group: maternal, systemic / in life observation / body weight / body weight gain + systemic / in life observation / food consumption / food consumption) of 100 mg/kg/day, an LEL (rat [4]; [18]) of 0.659 mg/kg/day and an NEL (rat [4]; [18]) of under 0.659 mg/kg/day. It also gave an LOAEL (rat [4]; systemic / in life observation / body weight / body weight + systemic / in life observation / body weight / body weight gain) of 34 mg/kg/day, an NOAEL (rat [4]; systemic / in life observation / body weight / body weight + systemic / in life observation / body weight / body weight gain + systemic / …) of 3.3 mg/kg/day and an LEL (rat [5]) of 34.9 mg/kg/day. It also gave an LOAEL (rat [5]) of 34.9 mg/kg/day, an NEL (rat [5]) of 3.2 mg/kg/day and an NOAEL (rat [5]) of 3.2 mg/kg/day. For the same compound, the LOAEL (rat [6]; systemic / in life observation / body weight / body weight gain + systemic / in life observation / food consumption / food consumption) was 25 mg/kg/day, the NEL (rat [6]; [19]) was 0.5 mg/kg/day and the NOAEL (rat [6]; [19]) was 3.5 mg/kg/day. The LEL (rat [6]; systemic / pathology microscopic / mammary gland / adenocarcinoma) was 3.5 mg/kg/day, the LOAEL (mouse [7]; systemic / in life observation / body weight / body weight gain) was 194 mg/kg/day and the LEL (mouse [7]; [20]) was 194 mg/kg/day. It also gave an NEL (mouse [7]; [20]) of 38.4 mg/kg/day, an NOAEL (mouse [7]; [20]) of 38.4 mg/kg/day and an LEL (rabbit [8]; [21]) of 75 mg/kg/day. For the same compound, the LOAEL (rabbit [8]; [21]) was 75 mg/kg/day, the NEL (rabbit [8]; [21]) was 5 mg/kg/day and the NOAEL (rabbit [8]; [21]) was 5 mg/kg/day. For the same compound, the LEL (rabbit [8]; [22]) was 75 mg/kg/day, the LOAEL (rabbit [8]; [22]) was 75 mg/kg/day and the NEL (rabbit [8]; [22]) was 5 mg/kg/day. For the same compound, the NOAEL (rabbit [8]; [22]) was 5 mg/kg/day, the LEL (rabbit [9]; [21]) was 75 mg/kg/day and the LOAEL (rabbit [9]; [21]) was 75 mg/kg/day. It also gave an NEL (rabbit [9]; [21]) of 5 mg/kg/day, an NOAEL (rabbit [9]; [21]) of 5 mg/kg/day and an LEL (rabbit [9]; [23]) of 75 mg/kg/day. For the same compound, the LOAEL (rabbit [9]; [23]) was 75 mg/kg/day, the NEL (rabbit [9]; [23]) was 5 mg/kg/day and the NOAEL (rabbit [9]; [23]) was 5 mg/kg/day. For the same compound, the LEL (dog [10]) was 24.1 mg/kg/day, the LOAEL (dog [10]) was 24.1 mg/kg/day and the NEL (dog [10]) was 3.61 mg/kg/day. For the same compound, the NOAEL (dog [10]) was 3.61 mg/kg/day, the LEL (dog [11]) was 33.6 mg/kg/day and the LOAEL (dog [11]) was 33.6 mg/kg/day. It also gave an NEL (dog [11]) of 4.97 mg/kg/day and an NOAEL (dog [11]) of 4.97 mg/kg/day.
In the case of Cc1c(C(=O)O)c(O)cc2c1C(=O)c1c(O)c([C@@H]3O[C@H](CO)[C@@H](O)[C@H](O)[C@H]3O)c(O)c(O)c1C2=O [Carminic acid], the LEL (mouse [12]) is reported as 4500 mg/kg/day, the LOAEL (mouse [12]) is reported as over 9000 mg/kg/day and the NEL (mouse [12]) is reported as under 4500 mg/kg/day. It also gave an NOAEL (mouse [12]) of at least 9000 mg/kg/day.
In the case of CCOC(=O)C(O)(c1ccc(Cl)cc1)c1ccc(Cl)cc1 [Chlorobenzilate], the LOAEL (rat [13]; [24]) is reported as 80 mg/kg/day, the NOAEL (rat [13]; [24]) is reported as under 80 mg/kg/day and the LEL (rat [13]; [25]) is reported as 58.8 mg/kg/day. It also gave an NEL (rat [13]; [25]) of under 58.8 mg/kg/day, an LOAEL (mouse [14]; [26]) of 480 mg/kg/day and an NOAEL (mouse [14]; [26]) of under 480 mg/kg/day. For the same compound, the LEL (mouse [14]; [27]) was 480 mg/kg/day and the NEL (mouse [14]; [27]) was under 480 mg/kg/day.
